# Laboratory results from patent US9809623B2, “α4β7 peptide monomer and dimer antagonists” (Protagonist Therapeutics, Inc., priority 2014, dated 2017).
# Numbered stars: 1 amine (or outer) side, 2 acyl side, 3 side chain; on linkers, the order of the positions; unused ones are H or OH. Bridge positions count the residues as written; N and C are the ends. Square brackets hold non-standard residues; d marks the D form. Peptide text beside a SMILES is read from it. I, II: the chains in the order shown. Diglycolyl = O=C(COCC(=O)[*:2])[*:1]; NMeR = CN[C@@H](CCCNC(=N)N)C(=O)O; β3hE = N[C@@H](CCC(=O)O)CC(=O)O; NMeK = CN[C@@H](CCCCN)C(=O)O; Pen = CC(C)(S)[C@H](N)C(=O)O; dNMeK = CN[C@H](CCCCN)C(=O)O
# How the values were obtained:
# α4β1 = target: T1, α4β1 (Homo sapiens, UniProt P05556+P13612, DEL729-798); assay: α4β1-VCAM Competition ELISA; format: binding; conditions: Table 4-B; read-out: ELISA_α4β1 IC50
# T1 construct: purchased R&D Systems 5668-A4
# Procedure, shortened: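 ELISA plates were coated with VCAM-1 Fc at 400 ng/well. Peptide dilutions (highest final 100 μM) and 60 nM α4β1 were incubated 2 h at 37 °C in pH 7.6 Tris buffer containing 1 mM Mn2+ or Mg2+. Integrin retained on the plate was detected by 9F10 antibody, then HRP secondary, with TMB absorbance at 450 nm.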
# [1] = Simulated Gastric Fluid (SGF) Assay; format: in vitro ADME; conditions: pig, simulated gastric fluid (SGF) with porcine pepsin, pH 2; Table 4-C, t1/2
# Procedure, shortened: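 Peptides at 20 μM final in simulated gastric fluid (NaCl, porcine pepsin, HCl; pH 2) at 37° C with shaking. Samples taken at 0, 15, 30 and 60 min, quenched in acetonitrile/0.1% formic acid and quantified by LC-MS/MS against internal standard, relative to time 0. Half-life from first-order exponential decay fit.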
# α4β7 = α4β7 (Homo sapiens, UniProt P13612+P26010); assay: PBMC Memory T Cell Adhesion Assay, adhesion to MAdCAM-1; format: cell-based; conditions: Table 4-B; read-out: Cell Adhesion PBMC IC50
# Procedure, shortened: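 Fresh human CD4+/CD45RO+ memory T cells in binding medium with 1 mM MnCl2 were preincubated with compound for 1.5 h at 37° C. on plates coated with Fc-captured MAdCAM-1 (400 ng/well). Adherent cells were read by fluorescence (Ex 485/Em 530). IC50 came from four-parameter nonlinear regression of RFU versus log concentration.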
# Sequence of α4β7 (P13612 34-1032): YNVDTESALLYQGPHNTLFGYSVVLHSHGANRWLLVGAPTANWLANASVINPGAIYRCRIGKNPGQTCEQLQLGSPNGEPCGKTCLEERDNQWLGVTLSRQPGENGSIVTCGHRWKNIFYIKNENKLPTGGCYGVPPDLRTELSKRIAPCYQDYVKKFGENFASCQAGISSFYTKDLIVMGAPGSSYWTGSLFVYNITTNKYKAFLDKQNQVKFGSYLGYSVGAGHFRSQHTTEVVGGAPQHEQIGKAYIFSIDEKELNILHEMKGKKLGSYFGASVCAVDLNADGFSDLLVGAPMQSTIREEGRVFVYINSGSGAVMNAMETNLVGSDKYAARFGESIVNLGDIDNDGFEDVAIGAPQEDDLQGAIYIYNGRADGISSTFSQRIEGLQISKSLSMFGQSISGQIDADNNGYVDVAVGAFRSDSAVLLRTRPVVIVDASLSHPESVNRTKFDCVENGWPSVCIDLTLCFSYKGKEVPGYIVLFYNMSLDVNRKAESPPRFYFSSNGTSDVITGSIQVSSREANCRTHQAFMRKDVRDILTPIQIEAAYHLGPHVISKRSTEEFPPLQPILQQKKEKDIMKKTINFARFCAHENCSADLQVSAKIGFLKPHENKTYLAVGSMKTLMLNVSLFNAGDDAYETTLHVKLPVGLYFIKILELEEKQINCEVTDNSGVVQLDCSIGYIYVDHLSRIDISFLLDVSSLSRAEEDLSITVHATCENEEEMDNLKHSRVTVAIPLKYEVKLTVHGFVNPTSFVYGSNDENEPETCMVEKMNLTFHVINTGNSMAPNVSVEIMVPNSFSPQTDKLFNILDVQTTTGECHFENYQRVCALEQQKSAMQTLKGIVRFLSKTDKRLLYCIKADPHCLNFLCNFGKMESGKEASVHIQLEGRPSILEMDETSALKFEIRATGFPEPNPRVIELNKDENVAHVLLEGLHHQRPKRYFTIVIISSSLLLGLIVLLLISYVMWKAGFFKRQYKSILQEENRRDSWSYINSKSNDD
# Sequence of α4β7 (P26010 20-798): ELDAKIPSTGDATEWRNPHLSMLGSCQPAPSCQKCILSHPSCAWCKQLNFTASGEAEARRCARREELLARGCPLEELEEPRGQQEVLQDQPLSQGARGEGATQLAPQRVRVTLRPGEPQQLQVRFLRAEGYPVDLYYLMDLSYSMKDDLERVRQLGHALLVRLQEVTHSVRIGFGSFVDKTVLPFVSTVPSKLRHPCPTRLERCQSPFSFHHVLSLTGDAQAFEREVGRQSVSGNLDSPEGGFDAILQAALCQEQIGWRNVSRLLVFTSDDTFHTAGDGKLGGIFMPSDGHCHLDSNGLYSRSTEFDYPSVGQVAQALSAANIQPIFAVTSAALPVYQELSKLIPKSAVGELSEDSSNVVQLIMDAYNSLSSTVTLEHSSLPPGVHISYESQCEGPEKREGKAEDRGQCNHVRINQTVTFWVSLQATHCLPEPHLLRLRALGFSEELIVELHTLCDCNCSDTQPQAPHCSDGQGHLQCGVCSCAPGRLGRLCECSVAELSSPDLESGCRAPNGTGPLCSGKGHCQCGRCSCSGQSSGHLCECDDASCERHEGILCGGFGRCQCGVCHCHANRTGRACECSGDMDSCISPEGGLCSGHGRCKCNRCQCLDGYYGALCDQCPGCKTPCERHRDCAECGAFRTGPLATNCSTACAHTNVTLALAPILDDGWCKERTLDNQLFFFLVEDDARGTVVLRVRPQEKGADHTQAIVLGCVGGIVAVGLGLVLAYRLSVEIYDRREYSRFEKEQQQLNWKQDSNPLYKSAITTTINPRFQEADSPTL
# T1 sequence (P13612 34-977 limits assumed, stated change not applied): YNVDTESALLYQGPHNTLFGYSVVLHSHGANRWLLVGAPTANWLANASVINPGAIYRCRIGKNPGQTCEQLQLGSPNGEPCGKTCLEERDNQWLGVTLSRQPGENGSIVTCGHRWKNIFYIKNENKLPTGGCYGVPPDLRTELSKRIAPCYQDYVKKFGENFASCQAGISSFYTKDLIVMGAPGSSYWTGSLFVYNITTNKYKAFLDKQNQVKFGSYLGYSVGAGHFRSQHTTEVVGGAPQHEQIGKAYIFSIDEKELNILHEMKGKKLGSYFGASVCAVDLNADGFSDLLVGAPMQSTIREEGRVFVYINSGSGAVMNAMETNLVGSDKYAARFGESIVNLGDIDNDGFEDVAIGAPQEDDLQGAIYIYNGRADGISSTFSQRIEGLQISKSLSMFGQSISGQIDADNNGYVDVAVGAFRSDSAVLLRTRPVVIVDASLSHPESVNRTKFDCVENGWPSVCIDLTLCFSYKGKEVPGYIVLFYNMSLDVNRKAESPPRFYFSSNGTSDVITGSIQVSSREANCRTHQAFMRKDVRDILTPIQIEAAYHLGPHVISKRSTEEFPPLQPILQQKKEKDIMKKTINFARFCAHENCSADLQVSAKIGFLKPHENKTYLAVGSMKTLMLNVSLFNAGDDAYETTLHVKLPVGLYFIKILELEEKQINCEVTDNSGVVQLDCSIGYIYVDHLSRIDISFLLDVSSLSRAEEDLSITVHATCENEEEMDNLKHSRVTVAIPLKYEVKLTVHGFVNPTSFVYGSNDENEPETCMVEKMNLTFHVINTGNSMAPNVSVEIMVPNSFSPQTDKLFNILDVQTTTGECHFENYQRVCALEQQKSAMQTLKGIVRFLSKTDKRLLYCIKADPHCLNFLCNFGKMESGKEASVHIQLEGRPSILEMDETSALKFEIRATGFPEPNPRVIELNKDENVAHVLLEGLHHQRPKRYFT
# T1 sequence (P05556 21-728 limits assumed, stated change not applied): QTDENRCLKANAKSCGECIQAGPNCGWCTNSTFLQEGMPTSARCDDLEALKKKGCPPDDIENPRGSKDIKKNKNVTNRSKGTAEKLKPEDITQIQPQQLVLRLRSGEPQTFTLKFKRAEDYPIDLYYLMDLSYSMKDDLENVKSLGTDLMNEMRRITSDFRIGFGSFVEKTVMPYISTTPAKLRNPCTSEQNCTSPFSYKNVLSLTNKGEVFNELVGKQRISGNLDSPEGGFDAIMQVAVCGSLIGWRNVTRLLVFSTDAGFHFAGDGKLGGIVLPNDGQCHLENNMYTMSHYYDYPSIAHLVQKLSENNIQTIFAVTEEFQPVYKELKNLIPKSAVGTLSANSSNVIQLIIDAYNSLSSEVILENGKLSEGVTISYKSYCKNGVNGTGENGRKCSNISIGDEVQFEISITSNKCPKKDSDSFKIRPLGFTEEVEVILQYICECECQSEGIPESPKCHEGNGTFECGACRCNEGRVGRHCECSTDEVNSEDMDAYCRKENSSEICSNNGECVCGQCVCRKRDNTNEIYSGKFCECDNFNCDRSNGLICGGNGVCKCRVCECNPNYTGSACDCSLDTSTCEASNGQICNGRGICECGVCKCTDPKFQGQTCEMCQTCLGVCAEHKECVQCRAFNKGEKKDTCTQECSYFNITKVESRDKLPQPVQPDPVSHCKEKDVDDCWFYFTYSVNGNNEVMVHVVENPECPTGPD
Compound,IC50 (α4β1),half-life at 20 μM [1],IC50 (α4β7)
"CC(=O)N[C@H]1CSSC(C)(C)[C@@H](C(=O)N[C@@H](Cc2c[nH]c3ccccc23)C(=O)N[C@H](CCCCNC(=O)COCC(=O)NCCCC[C@@H](NC(=O)[C@H](Cc2c[nH]c3ccccc23)NC(=O)[C@H]2NC(=O)[C@H](CC(C)C)NC(=O)[C@H]([C@@H](C)O)NC(=O)[C@H](CC(=O)O)NC(=O)[C@H](CO)NC(=O)[C@H](CCCNC(=N)N)N(C)C(=O)[C@@H](NC(C)=O)CSSC2(C)C)C(N)=O)C(N)=O)NC(=O)[C@H](CC(C)C)NC(=O)[C@H]([C@@H](C)O)NC(=O)[C@H](CC(=O)O)NC(=O)[C@H](CO)NC(=O)[C@H](CCCNC(=N)N)N(C)C1=O [compound 204, (Ac-C-N-Me-R-S-D-T-L-Pen-W-k-NH2)2-DIG] (I: Ac-C[NMeR]SDTL[Pen]W[dK]-NH2 / II: Ac-C[NMeR]SDTL[Pen]W[dK]-NH2; disulfide I:1-I:7, II:1-II:7 (inferred); linker I:9-II:9 via Diglycolyl (inferred))",463 nM,> 360 min,1280 nM
"CC(=O)N[C@@H]1C(=O)N(C)[C@@H](CCCNC(=N)N)C(=O)N[C@@H](CO)C(=O)N[C@@H](CC(=O)O)C(=O)N[C@@H]([C@@H](C)O)C(=O)N[C@@H](CC(C)C)C(=O)N[C@H](C(=O)N[C@@H](Cc2c[nH]c3ccccc23)C(=O)N[C@H](CCCCNC(=O)COCC(=O)NCCCC[C@@H](NC(=O)[C@H](Cc2c[nH]c3ccccc23)NC(=O)[C@H]2NC(=O)[C@H](CC(C)C)NC(=O)[C@H]([C@@H](C)O)NC(=O)[C@H](CC(=O)O)NC(=O)[C@H](CO)NC(=O)[C@H](CCCNC(=N)N)N(C)C(=O)[C@@H](NC(C)=O)C(C)(C)SSC2(C)C)C(N)=O)C(N)=O)C(C)(C)SSC1(C)C [compound 209, (Ac-Pen-N-Me-R-S-D-T-L-Pen-W-k-NH2)2-DIG] (I: Ac-[Pen][NMeR]SDTL[Pen]W[dK]-NH2 / II: Ac-[Pen][NMeR]SDTL[Pen]W[dK]-NH2; disulfide I:1-I:7, II:1-II:7 (inferred); linker I:9-II:9 via Diglycolyl (inferred))",368 nM,> 180 min,260 nM
"CC(=O)N[C@@H]1C(=O)N(C)[C@@H](CCCNC(=N)N)C(=O)N[C@@H](CO)C(=O)N[C@@H](CC(=O)O)C(=O)N[C@@H]([C@@H](C)O)C(=O)N[C@@H](CC(C)C)C(=O)N[C@H](C(=O)N[C@@H](Cc2c[nH]c3ccccc23)C(=O)N[C@@H](CCC(=O)O)CC(=O)N[C@H](CCCCNC(=O)COCC(=O)NCCCC[C@@H](NC(=O)C[C@H](CCC(=O)O)NC(=O)[C@H](Cc2c[nH]c3ccccc23)NC(=O)[C@H]2NC(=O)[C@H](CC(C)C)NC(=O)[C@H]([C@@H](C)O)NC(=O)[C@H](CC(=O)O)NC(=O)[C@H](CO)NC(=O)[C@H](CCCNC(=N)N)N(C)C(=O)[C@@H](NC(C)=O)C(C)(C)SSC2(C)C)C(N)=O)C(N)=O)C(C)(C)SSC1(C)C [compound 213, [Ac-Pen-(N-Me-Arg)-Ser-Asp-Thr-Leu-Pen-Trp-(β-homoGlu)-(D-Lys)-NH2]2-DIG] (I: Ac-[Pen][NMeR]SDTL[Pen]W[β3hE][dK]-NH2 / II: Ac-[Pen][NMeR]SDTL[Pen]W[β3hE][dK]-NH2; disulfide I:1-I:7, II:1-II:7; linker I:10-II:10 via Diglycolyl)",539 nM,> 180 min,
"CC(=O)N[C@@H]1C(=O)N(C)[C@@H](CCCNC(=N)N)C(=O)N[C@@H](CO)C(=O)N[C@@H](CC(=O)O)C(=O)N[C@@H]([C@@H](C)O)C(=O)N[C@@H](CC(C)C)C(=O)N[C@H](C(=O)N[C@@H](Cc2c[nH]c3ccccc23)C(=O)N[C@@H](CCC(=O)O)C(=O)N(C)[C@H](CCCCNC(=O)COCC(=O)NCCCC[C@H](C(N)=O)N(C)C(=O)[C@H](CCC(=O)O)NC(=O)[C@H](Cc2c[nH]c3ccccc23)NC(=O)[C@H]2NC(=O)[C@H](CC(C)C)NC(=O)[C@H]([C@@H](C)O)NC(=O)[C@H](CC(=O)O)NC(=O)[C@H](CO)NC(=O)[C@H](CCCNC(=N)N)N(C)C(=O)[C@@H](NC(C)=O)C(C)(C)SSC2(C)C)C(N)=O)C(C)(C)SSC1(C)C [compound 214, [Ac-Pen-(N-Me-Arg)-Ser-Asp-Thr-Leu-Pen-Trp-Glu-(N-Me-D-Lys)-NH2]2-DIG] (I: Ac-[Pen][NMeR]SDTL[Pen]WE[dNMeK]-NH2 / II: Ac-[Pen][NMeR]SDTL[Pen]WE[dNMeK]-NH2; disulfide I:1-I:7, II:1-II:7 (inferred); linker I:10-II:10 via Diglycolyl (inferred))",436 nM,> 360 min,24.5 nM
"CC(=O)N[C@@H]1C(=O)N(C)[C@@H](CCCNC(=N)N)C(=O)N[C@@H](CO)C(=O)N[C@@H](CC(=O)O)C(=O)N[C@@H]([C@@H](C)O)C(=O)N[C@@H](CC(C)C)C(=O)N[C@H](C(=O)N[C@@H](Cc2c[nH]c3ccccc23)C(=O)N[C@@H](CCC(=O)O)C(=O)N(C)[C@@H](CCCCNC(=O)COCC(=O)NCCCC[C@@H](C(N)=O)N(C)C(=O)[C@H](CCC(=O)O)NC(=O)[C@H](Cc2c[nH]c3ccccc23)NC(=O)[C@H]2NC(=O)[C@H](CC(C)C)NC(=O)[C@H]([C@@H](C)O)NC(=O)[C@H](CC(=O)O)NC(=O)[C@H](CO)NC(=O)[C@H](CCCNC(=N)N)N(C)C(=O)[C@@H](NC(C)=O)C(C)(C)SSC2(C)C)C(N)=O)C(C)(C)SSC1(C)C [compound 215, [Ac-Pen-(N-Me-Arg)-Ser-Asp-Thr-Leu-Pen-Trp-Glu-(N-Me-Lys)-NH2]2-DIG] (I: Ac-[Pen][NMeR]SDTL[Pen]WE[NMeK]-NH2 / II: Ac-[Pen][NMeR]SDTL[Pen]WE[NMeK]-NH2; disulfide I:1-I:7, II:1-II:7 (inferred); linker I:10-II:10 via Diglycolyl (inferred))",270 nM,> 360 min,16.5 nM
"CC(=O)N[C@@H]1C(=O)N(C)[C@@H](CCCNC(=N)N)C(=O)N[C@@H](CO)C(=O)N[C@@H](CC(=O)O)C(=O)N[C@@H]([C@@H](C)O)C(=O)N[C@@H](CC(C)C)C(=O)N[C@H](C(=O)N[C@@H](Cc2c[nH]c3ccccc23)C(=O)N[C@@H](CCC(=O)O)C(=O)N[C@H](CCCCNC(=O)COCC(=O)NCCCC[C@@H](NC(=O)[C@H](CCC(=O)O)NC(=O)[C@H](Cc2c[nH]c3ccccc23)NC(=O)[C@H]2NC(=O)[C@H](CC(C)C)NC(=O)[C@H]([C@@H](C)O)NC(=O)[C@H](CC(=O)O)NC(=O)[C@H](CO)NC(=O)[C@H](CCCNC(=N)N)N(C)C(=O)[C@@H](NC(C)=O)C(C)(C)SSC2(C)C)C(N)=O)C(N)=O)C(C)(C)SSC1(C)C [compound 217, (Ac-Pen-N-Me-R-S-D-T-L-Pen-W-E-k-NH2)2-DIG] (I: Ac-[Pen][NMeR]SDTL[Pen]WE[dK]-NH2 / II: Ac-[Pen][NMeR]SDTL[Pen]WE[dK]-NH2; disulfide I:1-I:7, II:1-II:7 (inferred); linker I:10-II:10 via Diglycolyl (inferred))",315 nM,> 360 min,
